Experimental data from patent US12070470B2, “Topoisomerase inhibitor for mimicking the effect of ionizing radiations on T cells” (Novagray, priority 2018, dated 2024).

Tested on: CD8 T-lymphocyte
Test: Etoposide-induced CD8 T-lymphocyte apoptosis procedure (flow cytometry, compared with 8 Gy RILA)
Assay type: cell-based, human
Conditions: for Corresponding etoposide concentration: x̃i^co: concentration corresponding to 8 Gy RILA, applied at the start of cell culture, whole blood
Procedure: Blood samples were purchased from Etablissement Français du Sang (EFS) with the convention number 21PLER2016-0100 AV01. Blood samples were collected from healthy donors in 5 mL heparinized tubes without separation gel.
Blood cells were grown in RPMI-1640 with glutamax (Fisher scientific, France) supplemented with 20% fetal calf serum (FCS) (EuroBio, France). Cells were maintained at 37° C. with 5% CO2 during the experiments.
Etoposide (EuroMedex) was solubilized in sterile dimethyl-sulfoxide (DMSO) at 75 mg/mL according to manufacturer instructions and stored at −80° C.
Before radiotherapy (RT), one blood sample was collected from each patient in a 5-mL heparinized tube. Twenty or twenty-four hours after blood collection, 200 μl of blood were aliquoted into a 6-well plate containing 2 mL of RPMI-20% FCS. All tests were carried out in triplicate for both 0 and 8 Gy. Ex-vivo irradiations were delivered after 24 hours of blood cell culture using the Xenx irradiator platform (XStrahl, UK). Then, the plates were immediately incubated for 48 hours at 37° C. (5% C02).
Samples were then centrifuged for 5 min at 300 g. The pellets were resuspended in phosphate-buffered saline (PBS) containing 10 μl of anti-human CD8-FITC antibody (Becton Dickinson, USA) and incubated for 20 minutes at room temperature. Then, red blood cells were lysed by addition of 4 ml of lysis buffer diluted 1:10 in water (Becton Dickinson, USA). After another 20 minutes incubation time at room temperature, samples were centrifuged for 5 min at 300 g and the pellets were washed with 3 ml of PBS. Pellets were suspended in 200 μl of PBS containing 25 μg/ml of propidium iodide (Sigma, France) and 5 μl of RNAse A at 10 mg/ml (Qiagen, France). The samples were analyzed by flow cytometry within the next hours, using the CytoFlex (Beckman Coulter, USA).
Different irradiation doses (0 Gy, 6 Gy, 8 Gy and 10 Gy) and different Etoposide concentrations (40 μg/mL, 60 μg/mL, 70 μg/mL, 80 μg/mL, 100 μg/mL) were applied to aliquots of the same blood sample.
Irradiations and culture were performed as previously described. The staining was performed 48 hours after the irradiation using the same protocol as previously described.
For the Etoposide treatment, two hundred microliters of blood were aliquoted into a 6-well plate containing 2 mL of RPMI-20% FCS-Etoposide 24 hours after blood cell collection. The cell culture media containing the different concentrations of etoposide were made fresh just before starting the cell culture. After etoposide incubation with blood cells for at least 50 hours (generally more than about 60 hours, in particular between 65 and 75 hours), samples were stained for flow cytometry analysis as described above.
Two mixed linear models with fixed intercept, fixed slope and random intercept were used to model the RILA rate evolution according to the compound or to the irradiation dose in Gray.

In the case of `COc1cc([C@@H]2c3cc4c(cc3[C@@H](O[C@@H]3O[C@@H]5CO[C@@H](C)O[C@H]5[C@H](O)[C@H]3O)[C@H]3COC(=O)[C@H]23)OCO4)cc(OC)c1O` [etoposide], the “Corresponding etoposide concentration: x̃i^co” value (Donor 1) is reported as 66.2 µg/mL, the “Corresponding etoposide concentration: x̃i^co” value (Donor 2) is reported as 70.1 µg/mL and the “Corresponding etoposide concentration: x̃i^co” value (Donor 3) is reported as 67.1 µg/mL. For the same compound, the “Corresponding etoposide concentration: x̃i^co” value (Donor 4) was 106.1 µg/mL, the “Corresponding etoposide concentration: x̃i^co” value (Donor 5) was 87.1 µg/mL and the “concentration at which the apoptosis rate obtained after irradiation is achieved” value (treatment applied at the start of blood cell culture) was “less than 150 μg/ml”.
